In patent US3976779A, “1,2,3,4-Tetrahydro-carbazole compounds and β-adrenergic compositions” (Boehringer Mannheim G.m.b.H., priority 1974, dated 1976):

Experiments:
[1] = tested on: cardiac β-receptor; assay: Blocking of isoprenalin tachycardia in wake rabbits (β-receptor blocking activity); conditions: for DE250: wake rabbits, interpolated dosage which limits frequency increase to 250 beats/min, 15 min i.v. infusion, isoprenalin i.v. 30 min after infusion; for Therapeutic Index (LD50:DE250): LD50 mouse i.v. : DE250 wake rabbit i.v.
Method: (§1) The following tests were carried out to determine the toxicity and the cardiac β-receptor blocking activity of certain test compounds by determining the inhibition of the heart beat frequency increase induced by intravenous administration of isoprenalin.
The β-receptor blocking activity of the test compounds was tested on wake rabbits weighing between 2 to 3.5 kg. and kept in wooden cages. EKG-electrodes were inserted into the hind quarters of the rabbits s.c. (II. lead) and the heart frequency was measured based on 20 heart beats. The test compounds were then infused through a small tube to the ear vein of the rabbits over a period of 15 minutes. 30 minutes after the infusion isoprenalin (3,4-dihydro-a-[(isopropylamino)-methyl]-benzylalcohol) was injected intravenously at 1 /ug/kg.

[2] = in vivo; conditions: iv, mouse, i.v., dosage at which 50% of the mice die, read-out: Acute Toxicity LD50 Mouse
Method: as §1

Compound	DE250 [1]	LD50 [2]	Therapeutic Index (LD50:DE250) [1]
CC(C)NCC(O)COc1cccc2ccccc12 (stereo not shown) [Compound A, 1-Isopropylamino-3-(1-napthoxy)-2-propanol, reference compound]	0.400 mg/kg i.v.	–	–
CC(C)(C)NCC(O)COc1cccc2[nH]c3c(c12)CCCC3 (stereo not shown) [Compound II, 1,2,3,4-Tetrahydro-5-(2-hydroxy-3-tert. butylaminopropoxy)-carbazole]	0.008 mg/kg i.v.	7 mg/kg	875
CC(C)NCC(O)COc1cccc2[nH]c3c(c12)CCCC3 (stereo not shown) [Compound I, 1,2,3,4-Tetrahydro-5-(2-hydroxy-3-isopropylamino-propoxy)-carbazole]	0.040 mg/kg i.v.	~8 mg/kg	~ 200
